Data from US20250186393A1 (SANOFI, priority 2022, published 2025).

Experiments:
UGT1A4 = target: T1, UGT1A4 (Homo sapiens, UniProt P22310); conditions: cited from earlier work
T1 sequence (P22310 29-534): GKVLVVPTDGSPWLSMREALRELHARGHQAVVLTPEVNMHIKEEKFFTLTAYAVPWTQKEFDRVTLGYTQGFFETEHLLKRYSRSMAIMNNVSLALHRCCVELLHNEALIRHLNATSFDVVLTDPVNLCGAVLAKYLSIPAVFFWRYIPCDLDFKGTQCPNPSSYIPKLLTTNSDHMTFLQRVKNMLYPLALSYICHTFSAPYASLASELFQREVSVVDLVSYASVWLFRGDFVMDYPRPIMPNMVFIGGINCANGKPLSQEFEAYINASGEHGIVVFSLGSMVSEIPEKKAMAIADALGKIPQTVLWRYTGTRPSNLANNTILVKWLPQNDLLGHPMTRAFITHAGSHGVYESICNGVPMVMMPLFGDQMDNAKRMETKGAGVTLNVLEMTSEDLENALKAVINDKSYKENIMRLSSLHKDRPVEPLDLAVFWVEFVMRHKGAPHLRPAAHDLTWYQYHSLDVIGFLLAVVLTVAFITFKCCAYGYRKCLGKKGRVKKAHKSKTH

[1] = system: estrogen receptor (ER)-positive, HER2-negative locally advanced or metastatic breast cancer; test: AMEERA-3 open label randomized Phase 2 trial, efficacy (PFS, OS, ORR, CBR, DCR per RECIST 1.1 by ICR); assay type: in vivo, human
UGT1A1 = target: T2, UGT1A1 (Homo sapiens, UniProt P22309); conditions: cited from earlier work
T2 sequence (P22309 26-533): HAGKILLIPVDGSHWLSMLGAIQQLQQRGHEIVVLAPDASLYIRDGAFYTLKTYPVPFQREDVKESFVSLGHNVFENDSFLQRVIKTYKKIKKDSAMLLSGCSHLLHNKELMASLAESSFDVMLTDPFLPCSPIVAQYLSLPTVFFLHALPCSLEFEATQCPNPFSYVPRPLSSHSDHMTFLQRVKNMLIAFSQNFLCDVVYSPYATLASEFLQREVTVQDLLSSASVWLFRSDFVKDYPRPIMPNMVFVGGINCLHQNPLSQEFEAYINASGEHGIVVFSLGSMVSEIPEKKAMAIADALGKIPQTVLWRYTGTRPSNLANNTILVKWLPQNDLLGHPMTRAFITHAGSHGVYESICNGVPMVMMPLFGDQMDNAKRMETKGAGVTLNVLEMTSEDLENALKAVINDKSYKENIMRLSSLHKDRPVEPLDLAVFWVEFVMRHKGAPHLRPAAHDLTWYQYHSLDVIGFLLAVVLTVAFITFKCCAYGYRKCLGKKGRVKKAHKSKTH

[2] = AMEERA-3 safety: treatment-emergent adverse events, safety population; assay type: in vivo
Excerpt: Secondary endpoints are defined as follows: • Overall survival: the time interval from the date of randomization to the date of documented death (due to any cause); • Objective response rate: the proportion of participants who have a confirmed complete response (CR) or partial response (PR), as best overall response (BOR) derived from overall response determined by ICR as per RECIST 1.1, from the date of randomization to the date of end of treatment; • Disease control rate: the proportion of participants who have a confirmed CR, PR, stable disease (SD), or Non-CR/Non-PD as BOR determined by ICR as per RECIST 1.1 from the date of randomization to the date of end of treatment; • Clinical benefit rate: the proportion of participants who have a confirmed CR, PR, SD, or Non-CR/Non-PD for at least 24 weeks determined by ICR as per RECIST 1.1, from the date of randomization to the date of end of treatment; • Progression-free survival as per ESR1 status: determined at Cycle 1 Day 1; • Overall safety profile: evaluated by adverse events/serious adverse events and laboratory abnormalities.
Concerning monitoring of adverse events, mention may be made of adverse events of special interest (AESI), who correspond to an adverse event (serious or nonserious) of scientific and medical concern specific to the Sponsor's product or program, for which ongoing monitoring and immediate notification by the Investigator to the Sponsor is required. Such events may require further investigation in order to characterize and understand them. For example: pregnancy of a participant or of a female partner of a participant entered in a study with IMP, symptomatic overdose with IMP, increase in ALT of a grade equal to or greater than 3, or photosensitivity.
The analysis populations were defined as follows: • Enrolled population: all patients who signed the informed consent form. • Intent-to-treat (ITT) population: all patients from the enrolled population and for whom there was a confirmation of successful allocation of a randomization number by Interactive Response Technology (IRT). Patients were analyzed according to the treatment arm assigned at randomization. • Safety population: all patients randomly assigned to study intervention and who took at least one dose of study intervention. Patients were analyzed according to the treatment arm they actually received.
The overview of adverse events (TEAEs: Treatment Emergent Adverse Events; SAEs: Serious Adverse Events; AESI: Adverse Events of Special Interest) is presented in Table 13.

[3] = amcenestrant 400 mg QD, Kaplan-Meier

SMILES: O=C(O)c1ccc2c(c1)CCCC(c1ccc(Cl)cc1Cl)=C2c1ccc(O[C@H]2CCN(CCCF)C2)cc1 [Amcenestrant, 6-(2,4-dichlorophenyl)-5-[4-[(3S)-1-(3-fluoropropyl)pyrrolidin-3-yl]oxyphenyl]-8,9-dihydro-7H-benzo[7]annulene-2-carboxylic acid]
- Substrate of UGT1A4 (UGT1A4): substrate
- Reduction in risk for disease progression or death ([1]; ESR1 mutation at baseline, amcenestrant compared to PCEM): 10.0%
- Progression-free survival rate at 12 months [1, 3]: 20.4%
- Progression-free survival rate at six months [1, 3]: 35.5%
- Substrate of UGT1A1 (UGT1A1): substrate
- Bradycardia/QTc prolongation ([2]; amcenestrant treatment arm): no bradycardia/QTc prolongation is observed
- Gastrointestinal disorders ([2]; mostly of Grade 1 or 2): 44.8%
- Skin and subcutaneous tissue disorders ([2]; mostly of Grade 1 or 2): 18.9%
- Participants with any AESI, % ([2]; safety population): (0.7) %
- Participants with any TEAE leading to treatment discontinuation, % ([2]; safety population): (3.5) %
- Participants with any TEAE, % ([2]; safety population): (82.5) %
- Participants with any grade ≥3 TEAE, % ([2]; safety population): (21.7) %
- Participants with any treatment emergent SAE, % ([2]; safety population): (16.1) %
- Participants with any treatment-related TEAE, % ([2]; safety population): (44.8) %
- Participants with any grade 5 TEAE, % ([2]; safety population, during the treatment period): (3.5) %
